Experimental data as given in patent publication US20060136140A1, “Method for identification and functional characterization of agents which modulate ion channel activity” (priority 2004, published 2006).
Entries after “also recorded” stand apart in the source; their conditions may differ. Read-outs that look alike come from different tables or passages of the source. No end group written: not given here.

Legend:
[1] = target: HERG potassium current (Homo sapiens, UniProt Q12809); details: cited from earlier work
[2] = target: T1, HERG K+ channel (Homo sapiens, UniProt Q12809)
Procedure: Cell functional assay using atomic absorption detection—Rubidium flux out of HERG-transfected CHO cells was characterized using a Shimadzu atomic absorption system. The amount of rubidium in the extracellular and intracellular compartments was determined after depolarization with 50 mM KCl, following a 3-minute incubation with test sample. The atomization buffer included 0.1% […]/1% HNO3 to suppress ionization of rubidium.
Minor modification of the published protocol was necessary due to different expression levels of the HERG protein in recombinant cells.
Two injections per sample are made into a Shimadzu AA and if the cv reaches 10%, a third injection is performed; the computer selects the two closer values.

[3] = target: T1, HERG K+ channel; remark: listed apart in the source
Procedure: Cell functional assay using membrane potential dye—A membrane potential dye-based functional assay based on the HERG-expressing CHO cells has been developed. This assay was performed on the same library in parallel with the radioligand and AA-based functional assay. HERG-expressing CHO cells were plated as for the AA assay, except they were loaded with […] DiBAC4 instead of RbCl. Test samples or controls were added inside a Molecular Devices FlexStation and readings were taken over a 25 minute time frame.
Membrane Potential Assay Procedure—100 uL of 250,000 cells/mL in media were added to a 96-well assay plate and cultured overnight. The cells were washed with Hanks/HEPES buffer with 2 g/L of glucose (loading buffer) and 100 uL of warmed loading buffer was added. 80 uL of the FLIPR Membrane Potential dye (Molecular Devices; dissolved in loading buffer) was then added and the samples incubated for at 45 min at 37° C. Drugs (10× final concentration) in loading buffer were run along with no-drug controls. […] […] Maximum response plateau is expected at approximately 7 minutes. This value will be used for EC50 calculation. […] For the other “actives”, IC50 values will be determined in this assay and at 1 or 2 concentrations in the Rb^+ flux assay.
One whole cell based functional assay we employed was based on the voltage sensitive dye DiBac4, using a detection method originally developed by Dr. Vince Groppi of Pharmacia-Upjohn FLIPR and FlexStation fluorescence detection systems. Cells expressing ion channels like HERG protein are hyperpolarized in the resting state. Inhibition of ion channel activities allows cells to return to normal potential. As the cell membrane becomes more positive, dye migrates into cell membrane, increasing the quantum efficiency of the dye and thus increasing fluorescence. […] Large number of compounds may be readily tested in either 96- or 384-well format. The mechanism of detection is based on the dye translocation in response to changes of the membrane environment. In certain circumstances, it may be desirable to perform confirmatory assays.

[4] = target: HERG protein (Homo sapiens, UniProt Q12809)
Procedure: Membrane preparations and ligand binding assays—Frozen cell pellets were first thawed and homogenized in 10 to 20 ml of assay buffer. An aliquot was taken for protein determination and the remaining homogenate was centrifuged (48,000×g, 10 min., 4° C.). According to the determined protein concentration, the resultant pellet was suspended in Heylen's buffer and added to radioligand and test compound. […] Bound radioactivity was determined by liquid scintillation spectroscopy.
Sources of radioligand—Various different radioligands were used in order to identify candidates for a given binding site.

[5] = target: T1, HERG K+ channel; remark: listed apart in the source
[6] = radiolabeled form, wild type vs recombinant CHO cells

Sequence of HERG protein (Q12809 whole entry): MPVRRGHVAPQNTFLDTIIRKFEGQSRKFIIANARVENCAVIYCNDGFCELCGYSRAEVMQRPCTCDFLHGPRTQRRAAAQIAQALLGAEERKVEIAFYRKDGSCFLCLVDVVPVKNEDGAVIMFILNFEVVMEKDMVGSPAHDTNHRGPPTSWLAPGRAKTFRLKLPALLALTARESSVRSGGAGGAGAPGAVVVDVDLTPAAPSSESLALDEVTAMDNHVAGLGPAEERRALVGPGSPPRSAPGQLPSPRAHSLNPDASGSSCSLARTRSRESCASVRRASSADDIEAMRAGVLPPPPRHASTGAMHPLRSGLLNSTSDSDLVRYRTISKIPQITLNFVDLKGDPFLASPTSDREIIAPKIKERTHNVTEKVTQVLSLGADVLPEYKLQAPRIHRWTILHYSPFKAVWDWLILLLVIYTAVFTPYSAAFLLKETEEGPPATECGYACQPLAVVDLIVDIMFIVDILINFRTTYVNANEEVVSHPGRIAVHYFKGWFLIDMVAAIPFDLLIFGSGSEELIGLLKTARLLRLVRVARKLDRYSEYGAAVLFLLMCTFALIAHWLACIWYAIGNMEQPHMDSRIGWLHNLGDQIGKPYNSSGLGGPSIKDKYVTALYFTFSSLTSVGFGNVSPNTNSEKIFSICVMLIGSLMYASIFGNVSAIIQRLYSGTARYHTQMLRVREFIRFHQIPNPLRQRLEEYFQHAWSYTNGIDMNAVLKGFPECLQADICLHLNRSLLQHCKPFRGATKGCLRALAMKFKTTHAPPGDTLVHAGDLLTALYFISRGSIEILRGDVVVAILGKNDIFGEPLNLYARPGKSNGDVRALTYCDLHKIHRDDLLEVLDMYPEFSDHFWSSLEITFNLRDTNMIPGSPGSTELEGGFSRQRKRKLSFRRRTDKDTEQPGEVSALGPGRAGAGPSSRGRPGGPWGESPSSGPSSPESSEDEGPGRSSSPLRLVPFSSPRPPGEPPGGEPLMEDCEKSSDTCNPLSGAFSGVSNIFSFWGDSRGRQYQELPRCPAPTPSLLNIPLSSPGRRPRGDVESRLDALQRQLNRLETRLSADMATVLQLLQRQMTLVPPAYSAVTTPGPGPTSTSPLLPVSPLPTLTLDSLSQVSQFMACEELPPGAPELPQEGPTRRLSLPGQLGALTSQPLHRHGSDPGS
T1 sequence (Q12809 whole entry): as above
Sequence of HERG potassium current (Q12809 whole entry): as above

For `CC[C@H]1OC(=O)[C@H](C)[C@@H](O[C@H]2C[C@@](C)(OC)[C@@H](O)[C@H](C)O2)[C@H](C)[C@@H](O[C@@H]2O[C@H](C)C[C@H](N(C)C)[C@H]2O)[C@](C)(OC)C[C@@H](C)C(=O)[C@H](C)[C@@H](O)[C@]1(C)O` [Clarithromycin], the IC50 [1] is given as 45.7 µM.
With `CC(C)NCC(O)c1ccc(NS(C)(=O)=O)cc1` (racemic) [sotalol, (+/−)sotalol] the “activity in the assay using atomic absorption” value [2] was “modestly active” and the “activity in the dye-based assay” value [3] was “did not exhibit any activity”.
With `O=C(CCCN1CCC(O)(c2ccc(Cl)cc2)CC1)c1ccc(F)cc1` [haloperidol, Haloperidol] the “inhibition of HERG channel (Rb+ efflux), dose response” value [2] was “completely inhibited”.
In the case of `O=C(CCCN1CCC(O)(c2ccc(Cl)cc2)CC1)c1ccc(F)cc1` [[^3H]-Haloperidol], the “binding of radiolabeled ligand, specificity for the recombinant protein” value (shortened to “binding of radiolabeled ligand”) [4] is reported as “high binding levels with both the wild type and the recombinant CHO cells”.
With `COC(=O)C1=C(C)NC(C)=C(C(=O)OCCN(C)Cc2ccccc2)C1c1cccc([N+](=O)[O-])c1` (centres unmarked) [nicardipine, Nicardipine] the “activity in the assay using atomic absorption” value ([2]; 10^−5 M, room temperature) was “modestly active”, the “activity in the dye-based assay” value ([3]; 10^−5 M, room temperature) was “lack of functional activity; also recorded: did not exhibit any activity” and the “activity in the dye-based assay” value ([3]; 10^−5 M, room temperature, listed as Nicardipine) was “lacked activity”.
In the case of `Fc1ccc(C(OCCN2CCN(CCCc3ccccc3)CC2)c2ccc(F)cc2)cc1` [GBR12909], the “activity in all three assays” value [5] is reported as “consistent and relatively potent activity”.
In the case of `O=c1[nH]c2ccccc2n1C1CCN(CCCC(c2ccc(F)cc2)c2ccc(F)cc2)CC1` [pimozide, Pimozide], the “inhibition of HERG channel (Rb+ efflux), dose response” value [2] is reported as “completely inhibited” and the “activity in all three assays” value [5] is reported as “consistent and relatively potent activity”.
In the case of “[^125I]-BeKm-1: custom preparation of the iodinated scorpion toxin (RPTDIKCSESYQCFPVCKSRFGKTNGRCVNGFCDCF; ends and bridges not checked; also: 125I iodinated, site not given here; UniProt Q9BKB7 22-57, looked up)”, the “binding of radiolabeled ligand” value [4, 6] is reported as “did not observe sufficient binding”.
With `COC(=O)[C@H]1[C@@H](c2ccc(F)cc2)C[C@@H]2CC[C@H]1N2C` [WIN-35428] the “binding of radiolabeled ligand” value [4, 6] was “None of these compounds indicated sufficient specificity”.
With `c1ccc(CCCN2CCN(CCOC(c3ccccc3)c3ccccc3)CC2)cc1` [GBR12935] the “activity in all three assays” value [5] was “consistent and relatively potent activity”.
